Source: US20230094545A1, “S1P RECEPTOR MODULATORS” (AKAAL PHARMA PTY LTD, priority 2020, published 2023)

Key:
[1] = cited from earlier work
S1P1 receptor [2] = target: T1, S1P1 receptor (Homo sapiens, UniProt P21453); conditions: cited from earlier work; for activity v/s degradation margin: known S1P receptor modulators; for receptor degradation ability: Lucas et al
EAE = test: Animal model of multiple sclerosis (EAE induced with guinea pig MBP); format: in vivo, Lewis rats; conditions: EAE rats, oral every day until day 26
Protocol: The oral treatment with a compound of formula (I) was conducted in an animal model of multiple sclerosis. EAE was induced in female Lewis rats with guinea pig MBP (25 μg/rat).

[3] = single dose, 2 mg or lower doses; cited from earlier work
S1P1 receptor [4] = target: T1, S1P1 receptor; conditions: Lucas et al; read-out: EC50 at S1P1 receptor in a GTPγS assay; cited from earlier work
[5] = Solubility in water / precipitation in buffer; format: physicochemical
Protocol: To solubilize the free base in water the novel technology AvignaSOL (N,N-Dimethyl hexanamide; patent number: U.S. Pat. No. 9,186,338B2) and its higher derivatives such as octinamide, decamide which improve the absorption of various poorly soluble drugs was used. AvignaSOL as 1-70% ww % assisted the solubilization of free base as 1 gm/20 mL of water. The solubility of free base in water assisted its direct use in various formulation such as creams, gels, solutions which together with the permeation enhancing effect will be harnessed to improve skin penetration and/or bioavailability and in altering the pharmacokinetics and pharmacodynamics profile of free base.
The AvignaSOL having a log P of ˜1.6 hinder the release by increasing the hydrophobicity of the delivery system. […] The combination of compound of formula I with other ingredients including sustained release enhancer with or without AvignaSOL were prepared as novel formulation techniques to improve and/or alter the pharmacokinetics and pharmacodynamics profile of compound of Formula I.

T1 sequence (P21453 whole entry): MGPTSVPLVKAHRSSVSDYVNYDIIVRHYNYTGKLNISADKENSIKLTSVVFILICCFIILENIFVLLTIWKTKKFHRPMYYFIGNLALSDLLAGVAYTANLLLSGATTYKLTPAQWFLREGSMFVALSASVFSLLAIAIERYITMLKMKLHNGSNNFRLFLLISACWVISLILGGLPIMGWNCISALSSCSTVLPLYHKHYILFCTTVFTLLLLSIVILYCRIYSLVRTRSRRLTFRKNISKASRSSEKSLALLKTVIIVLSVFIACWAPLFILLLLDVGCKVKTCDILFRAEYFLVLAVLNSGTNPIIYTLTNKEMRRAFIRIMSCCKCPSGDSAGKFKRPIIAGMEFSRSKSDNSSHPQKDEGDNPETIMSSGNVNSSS

SMILES: CCCCCC(=O)N(C)C [AvignaSOL, N,N-Dimethyl hexanamide]
- log P [1]: ~1.6

SMILES: CCc1cc(/C(C)=N/OCc2ccc(C3CCCCC3)c(C(F)(F)F)c2)ccc1CN1CC(C(=O)O)C1 [BAF-312]
- activity v/s degradation margin (S1P1 receptor [2]): 2.95

SMILES: CCCCCCCCc1ccc(CCC(N)(CO)CO)cc1 [FTY720]
- receptor degradation ability (S1P1 receptor [2]): 0.34 nM
- activity v/s degradation margin (S1P1 receptor [2]): 0.17
- lymphopenia (EAE): induced at a high level over a long-term period

SMILES: CC(C)Oc1ncc(-c2nc(-c3cccc4c3ccn4CCCC(=O)O)no2)cc1Cl [GSK2018682]
- lymphopenia [3]: minimal or no lymphopenia
- reduction in heart rate [3]: ≥ 10 beats

SMILES: CCC/N=C1\S/C(=C\c2ccc(OC[C@H](O)CO)c(Cl)c2)C(=O)N1c1ccccc1C [Ponesimod]
- activity v/s degradation margin (S1P1 receptor [2]): < 2

SMILES: CCCCCCCCCCCCC/C=C/[C@@H](O)[C@@H](N)COP(=O)(O)O [S1P]
- receptor degradation ability (S1P1 receptor [2]): 302 nM
- EC50 (S1P1 receptor [4]): 1.2 nM

SMILES: CCCOc1ccc(-c2nc(-c3ccc4oc(C(N)(CO)CO)cc4c3)no2)cc1Cl [compound of formula I free base]
- solubility in water [5]: insoluble in water
